Data taken from paper PMC5564600 (Oncotarget, 2017).

Key:
Assay in all cases: biochemical
Format in all cases: binding
panel of 442 kinases [1] = molecular target: T1, panel of 442 kinases (Homo sapiens, UniProt O15111); conditions: kinase IKK-alpha; for remaining activity at 1 µM: read-out: % of control at 1 µM
T1 construct: purchased Ambit Biosciences (scanMAXX KINOMEscan)
T1 sequence (O15111 1-745): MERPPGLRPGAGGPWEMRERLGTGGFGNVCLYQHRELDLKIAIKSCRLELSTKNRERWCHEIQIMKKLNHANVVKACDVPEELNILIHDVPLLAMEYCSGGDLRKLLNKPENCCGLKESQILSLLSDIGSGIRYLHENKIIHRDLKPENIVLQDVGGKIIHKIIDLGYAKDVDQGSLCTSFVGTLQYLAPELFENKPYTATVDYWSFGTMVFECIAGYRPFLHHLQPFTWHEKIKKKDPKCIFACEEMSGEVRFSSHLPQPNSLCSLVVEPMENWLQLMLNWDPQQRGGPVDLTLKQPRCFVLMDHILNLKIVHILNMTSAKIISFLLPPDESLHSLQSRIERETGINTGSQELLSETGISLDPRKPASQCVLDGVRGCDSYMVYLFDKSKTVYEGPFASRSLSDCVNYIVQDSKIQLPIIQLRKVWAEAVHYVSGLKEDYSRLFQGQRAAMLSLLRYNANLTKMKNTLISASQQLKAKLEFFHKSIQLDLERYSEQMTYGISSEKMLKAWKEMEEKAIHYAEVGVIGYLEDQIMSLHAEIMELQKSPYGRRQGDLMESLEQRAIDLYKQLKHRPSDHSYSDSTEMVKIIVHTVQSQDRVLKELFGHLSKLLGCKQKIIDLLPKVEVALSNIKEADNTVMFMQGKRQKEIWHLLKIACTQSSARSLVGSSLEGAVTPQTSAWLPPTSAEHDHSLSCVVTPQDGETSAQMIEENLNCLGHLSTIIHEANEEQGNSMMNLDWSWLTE

panel of 442 kinases [2] = molecular target: T2, panel of 442 kinases (Homo sapiens, UniProt P36888, N841I); conditions: kinase FLT3(N841I); for remaining activity at 1 µM: read-out: % of control at 1 µM
T2 construct: purchased Ambit Biosciences (scanMAXX KINOMEscan)
T2 sequence (P36888 27-993 N841I): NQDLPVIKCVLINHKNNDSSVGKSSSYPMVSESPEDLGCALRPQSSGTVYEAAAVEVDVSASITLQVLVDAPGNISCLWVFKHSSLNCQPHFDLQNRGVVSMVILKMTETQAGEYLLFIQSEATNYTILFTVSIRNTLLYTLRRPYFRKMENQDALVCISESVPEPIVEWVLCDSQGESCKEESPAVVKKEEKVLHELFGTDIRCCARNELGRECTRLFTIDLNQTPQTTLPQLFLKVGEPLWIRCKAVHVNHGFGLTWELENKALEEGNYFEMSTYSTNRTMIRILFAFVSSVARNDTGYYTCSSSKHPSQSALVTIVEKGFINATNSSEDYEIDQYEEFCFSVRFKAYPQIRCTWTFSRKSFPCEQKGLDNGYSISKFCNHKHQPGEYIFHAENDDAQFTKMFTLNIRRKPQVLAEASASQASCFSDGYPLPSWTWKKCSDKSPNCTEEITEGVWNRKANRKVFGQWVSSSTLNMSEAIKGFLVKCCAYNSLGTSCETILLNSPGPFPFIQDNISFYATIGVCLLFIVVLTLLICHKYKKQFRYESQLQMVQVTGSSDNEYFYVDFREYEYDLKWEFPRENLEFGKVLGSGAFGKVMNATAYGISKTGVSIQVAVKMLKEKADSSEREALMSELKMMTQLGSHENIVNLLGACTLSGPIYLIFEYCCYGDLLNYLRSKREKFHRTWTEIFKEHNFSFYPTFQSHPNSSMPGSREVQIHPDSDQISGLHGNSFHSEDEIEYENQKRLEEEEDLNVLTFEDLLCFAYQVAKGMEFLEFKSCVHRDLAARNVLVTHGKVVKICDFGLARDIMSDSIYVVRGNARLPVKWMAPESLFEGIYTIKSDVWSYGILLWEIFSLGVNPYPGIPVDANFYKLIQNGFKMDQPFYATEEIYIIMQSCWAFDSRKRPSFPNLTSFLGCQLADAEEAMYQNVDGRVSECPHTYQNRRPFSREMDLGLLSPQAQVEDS

panel of 442 kinases [3] = molecular target: T3, panel of 442 kinases (Homo sapiens, UniProt P51813); conditions: BMX; for remaining activity at 1 µM: read-out: % of control at 1 µM
T3 construct: purchased Ambit Biosciences (scanMAXX KINOMEscan)
T3 sequence (P51813 1-675): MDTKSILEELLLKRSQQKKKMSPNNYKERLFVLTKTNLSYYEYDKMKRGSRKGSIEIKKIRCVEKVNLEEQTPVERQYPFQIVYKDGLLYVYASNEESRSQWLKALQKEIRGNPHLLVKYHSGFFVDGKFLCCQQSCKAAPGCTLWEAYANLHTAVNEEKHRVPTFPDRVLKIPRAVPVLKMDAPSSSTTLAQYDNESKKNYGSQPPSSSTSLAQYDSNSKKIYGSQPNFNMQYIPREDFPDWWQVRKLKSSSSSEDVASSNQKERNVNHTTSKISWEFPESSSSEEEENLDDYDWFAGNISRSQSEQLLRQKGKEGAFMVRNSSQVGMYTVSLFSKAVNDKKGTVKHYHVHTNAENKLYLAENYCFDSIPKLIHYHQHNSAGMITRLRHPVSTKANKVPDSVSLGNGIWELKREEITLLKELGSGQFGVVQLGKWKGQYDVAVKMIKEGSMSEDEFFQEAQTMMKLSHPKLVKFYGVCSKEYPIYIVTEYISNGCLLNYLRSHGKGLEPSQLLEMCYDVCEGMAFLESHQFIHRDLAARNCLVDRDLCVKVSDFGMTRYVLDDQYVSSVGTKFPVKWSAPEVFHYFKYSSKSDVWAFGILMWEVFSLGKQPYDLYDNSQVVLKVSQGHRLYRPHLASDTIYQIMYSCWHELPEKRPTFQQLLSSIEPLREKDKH

[4] = 10 µM, read-out: % of control at 10 µM

SMILES	remaining activity at 1 µM (panel of 442 kinases [1]) [%]	remaining activity at 10 µM (panel of 442 kinases [1]; [4]) [%]	remaining activity at 1 µM (panel of 442 kinases [2]) [%]	remaining activity at 10 µM (panel of 442 kinases [2]; [4]) [%]	remaining activity at 1 µM (panel of 442 kinases [3]) [%]	remaining activity at 10 µM (panel of 442 kinases [3]; [4]) [%]
Nc1cc(C(F)(F)F)c(-c2cc(N3CCOCC3)nc(N3CCOCC3)n2)cn1 [Buparlisib]	59	59	86	97	100	100
COc1ncc(-c2ccc3nccc(-c4ccnnc4)c3c2)cc1NS(=O)(=O)c1ccc(F)cc1F [Omipalisib]	100	–	70	–	96	–
FC(F)c1nc2ccccc2n1-c1nc(N2CCOCC2)nc(N2CCOCC2)n1 [ZSTK474, 2-(difluoromethyl)-1-[4,6-di(4-morpholinyl)-1,3,5-triazin-2-yl]-1H-benzimidazole]	73	–	90	–	99	–
Cn1c(=O)n(-c2ccc(C(C)(C)C#N)cc2)c2c3cc(-c4cnc5ccccc5c4)ccc3ncc21 [Dactolisib, 2-methyl-2-[4-(3-methyl-2-oxo-8-quinolin-3-yl-2,3-dihydroimidazo[4,5-c]quinolin-1-yl)-phenyl] propionitrile]	63	–	24	–	–	–
